Data taken from patent publication US9266832B2, “Compounds for the treatment of neurodegenerative diseases” (Katholieke Universiteit Levun, priority 2010, dated 2016).
pEC50: −log10 of the molar value.

What follows are compounds tested on M17-TAU P301L cells (assay: Tau-induced toxicity experiment: LDH leakage of retinoic acid incubated M17-TAU P301L cells). Conditions: Homo sapiens, Neuroblastoma cell, 168 h; reduction of LDH activity of retinoic acid incubated M17-TAU P301L neuroblastoma cells, 7 days.
Type: cell-based
O=C(NCCc1c[nH]c2ccc(-c3ccccc3)cc12)c1ccc(Cc2cccc(F)c2)cc1 [Cpd111, 4-(3-fluorobenzyl)-N-(2-(5-phenyl-1H-indol-3-yl)ethyl)benzamide] gave a pEC50 of 6.27. N#Cc1ccc2[nH]cc(CCNC(=O)c3ccc(Cc4cccc(F)c4)cc3)c2c1 [Cpd115, N-(2-(5-cyano-1H-indol-3-yl)ethyl)-4-(3-fluorobenzyl)benzamide] showed a pEC50 of 7.12. O=C(NCCc1c[nH]c2ccc(N3CCOCC3)cc12)c1ccc(Cc2cccc(F)c2)cc1 [Cpd116, 4-(3-fluorobenzyl)-N-(2-(5-morpholino-1H-indol-3-yl)ethyl)benzamide] was tested, and the pEC50 was 6.78. O=C(NCCc1c[nH]c2ccc(Cl)cc12)c1cccc(Cc2cccc(F)c2)n1 [Cpd117, N-(2-(5-chloro-1H-indol-3-yl)ethyl)-6-(3-fluorobenzyl)picolinamide] showed a pEC50 of 6.96.
